In assay [1] the test system is F4ac-expressing E. coli strain GIS 26. As to the kind of experiment: In vitro villous adhesion assay after treatment of porcine villi with agents (control strain). The format is cell-based, Escherichia coli. To be noted: villi treated 1 h at room temperature; 1% Triton X-100; 10 mM NaIO4 in 0.2M sodium acetate pH 4.5. The text has this:
(§1) The nature of the F18R on porcine small intestinal villous enterocytes was investigated using an in vitro villous adhesion inhibition assay (Cox, E., Houvenaghel, A., 1993. Vet. Microbiol. 34(1), 7-18; Verdonck, F., Cox, E., van Gog, K., Van der Stede, Y., Duchateau, L., Deprez, P., Goddeeris, B. M., 2002. Vaccine 20(23-24), 2995-3004). Briefly, a 20 cm intestinal segment was collected from the mid jejunum of a euthanized pig, rinsed three times with ice cold PBS, and fixed with Krebs-Henseleit buffer (160 mM, pH 7.4) containing 1% (v/v) formaldehyde for 30 min at 4° C. Thereafter, the villi were gently scraped from the mucosae with a glass slide and stored in Krebs-Henseleit buffer at 4° C. Treatment of villi with acetone, methanol, 1% Triton® X-100, 10 mM NaIO4 in 0.2M sodium acetate, pH 4.5, or 0.2M sodium acetate, pH 4.5, without NaIO4, respectively, was performed at room temperature on a rotating wheel in a volume of 500 μl during 1 h. Next, the villi were washed 6 times with Krebs-Henseleit buffer followed by addition of 4×10^8 bacteria of the F18 positive reference E. coli strain (107/86), or the F4ac-expressing E. coli strain GIS 26, to an average of 50 villi in a total volume of 500 μl PBS, supplemented with 1% (w/v) D-mannose in order to prevent adhesion mediated by type 1 pili. These mixtures were incubated at room temperature for 1 h while being gently shaken. Villi were examined by phase-contrast microscopy at a magnification of 600, and the number of bacteria adhering along 50 μm brush border was quantitatively evaluated by counting the number of adhering bacteria at 20 randomly selected places, after which the mean bacterial adhesion was calculated.
(§2) To examine the character of the F18R, intestinal villi isolated from four pigs were treated with different agents that affect lipids or carbohydrates on the enterocyte cell membrane. Treatment was followed by assessment of adhesion of F18-fimbriated E. coli to the villus epithelium.

The test system of assay [2] is F18 positive reference E. coli strain (107/86). Description: In vitro villous adhesion assay after treatment of porcine villi with agents. The assay is classed as cell-based, Escherichia coli. The settings on record: villi of four pigs treated 1 h at room temperature; 1% Triton X-100; 10 mM NaIO4 in 0.2M sodium acetate pH 4.5.
From the text: as §1, §2

This note sets out measurements from US8703722B2, “Inhibitors of F18+ E coli binding” (priority 2008, dated 2014).

Turning to `[Na+].[O-][I+3]([O-])([O-])[O-]` [NaIO4], the “Adhesion of control F4ac-fimbriated E. coli strain to porcine intestinal villi after treatment of the villi” value in assay [1] was “abolished”. Also, in assay [2], the “Adhesion of F18-fimbriated E. coli to porcine intestinal villi after treatment of the villi” value (shortened to “Adhesion of F18-fimbriated E. coli”) is given as “completely abolished”.

Consider `CC(C)=O` [acetone], for which the “Adhesion of control F4ac-fimbriated E. coli strain to porcine intestinal villi after treatment of the villi” value in assay [1] is “no or only little effect”. The “Adhesion of F18-fimbriated E. coli” value in assay [2] is given as “completely abolished”.

On to `CO` [methanol], for which the “Adhesion of control F4ac-fimbriated E. coli strain to porcine intestinal villi after treatment of the villi” value in assay [1] is reported as “no or only little effect”. In addition, the “Adhesion of F18-fimbriated E. coli” value in assay [2] is recorded as “completely abolished”.

Regarding Triton® X-100, in assay [1], the “Adhesion of control F4ac-fimbriated E. coli strain to porcine intestinal villi after treatment of the villi” value is on record as “no or only little effect”. In addition, the “Adhesion of F18-fimbriated E. coli” value in assay [2] was “completely abolished”.
